Reference: patent publication US12134610B2, “Somatostatin subtype-2 receptor (SST2R) targeted therapeutics and uses thereof” (priority 2022, dated 2024)
Read-outs that look alike come from different tables or passages of the source. Starred links: 1 amine or outer side, 2 acyl side, 3 side chain; linkers in the order of their positions; H or OH if unused. Non-standard residues stand in square brackets, D forms with d. Residues, ends and D or L forms follow the SMILES beside them. *: point of attachment. PABC(3-O-βDGlc) = O=C(OCc1ccc(N[*:1])c(O[C@@H]2O[C@H](CO)[C@@H](O)[C@H](O)[C@H]2O)c1)[*:2]; X1 = Cc1cc(F)cc(-c2cnc(NCCNC(=O)CCOCCC(=O)*)c(-c3nc4ccc(Cl)cc4[nH]3)c2N2CCC(N)CC2)c1; Dolaproine = CO[C@@H]([C@@H]1CCCN1)[C@@H](C)C(=O)O; Dil = CC[C@H](C)[C@H](NC)[C@@H](CC(=O)O)OC; PABC = O=C(OCc1ccc(N[*:1])cc1)[*:2]; X2 = C[C@@H](N*)[C@@H](O)c1ccccc1; Cya = N[C@@H](CS(=O)(=O)O)C(=O)O; Cit = NC(=O)NCCC[C@H](N)C(=O)O; NMeV = CN[C@H](C(=O)O)C(C)C

Key:
Format in all cases: cell-based
[1] = biological target: T1, human somatostatin receptor subtype 2 (Homo sapiens, UniProt P30874); assay: Functional cAMP assay for SSTR2 agonists (HTRF) in CHO-K1 cells; settings: CHO-K1 cells stably expressing human SST2, 20 min
T1 construct: expressed in transfected cells
Method in brief: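 Agonism scored as loss of NKH477 (1.6 μM)-driven cAMP, with IBMX present, after 20 min, 37° C. exposure of stably transfected CHO-K1 cells to compound dilutions (typically 0-10,000 nM). Lysates read by time-resolved FRET; cAMP interpolated from standard curve and EC50 derived.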

[2] = system: NCI-H524 (ATCC) human small cell lung cancer cells
Method in brief: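 CellTiter-Glo luminescence after a 2 h SMDC pulse (top dose 1 uM, 2-fold dilutions, 11 points), medium wash, then 70 h recovery. Cells were seeded at 5,000/well and dosed 24 h later. % inhibition vs control gave IC50 via four-parameter fit.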

SST2 = biological target: T2, SST2 (Homo sapiens, UniProt P30874); assay: PathHunter CHO-K1 SST2 internalization assay; settings: PathHunter CHO-K1 SST2, 90 min
T2 construct: host or cells: PathHunter CHO-K1 SST2 cells
Method in brief: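 IC50 comes from four-parameter curves on background-corrected duplicates of Beta-Glo luminescence, read after 60 min at room temperature in the dark. Before that, CHO-K1 SST2 internalization cells (48 h post-seeding) received SMDC as eleven threefold dilutions, 10 uM highest final, for 90 min at 37 C.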

[3] = 2 h treatment, washout, additional 70 h, read-out: H524 EC50

T1 sequence (P30874 whole entry): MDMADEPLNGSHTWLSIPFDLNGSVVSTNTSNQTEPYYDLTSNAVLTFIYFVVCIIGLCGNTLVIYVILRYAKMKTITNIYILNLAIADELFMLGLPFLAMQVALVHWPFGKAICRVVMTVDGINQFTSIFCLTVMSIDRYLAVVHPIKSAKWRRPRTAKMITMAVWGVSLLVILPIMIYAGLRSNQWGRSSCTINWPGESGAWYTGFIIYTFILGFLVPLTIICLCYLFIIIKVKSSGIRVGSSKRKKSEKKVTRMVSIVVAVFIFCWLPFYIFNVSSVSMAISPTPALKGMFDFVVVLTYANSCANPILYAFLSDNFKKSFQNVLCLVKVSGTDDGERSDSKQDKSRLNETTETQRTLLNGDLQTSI
T2 sequence (P30874 whole entry): as above

SMILES: CC[C@@]1(O)C(=O)OCc2c1cc1n(c2=O)Cc2c-1nc1cc(F)c(C)c3c1c2[C@@H](NC(=O)OCc1ccc(NC(=O)[C@H](CCCNC(N)=O)NC(=O)[C@@H](NC(=O)[C@H](CCC(=O)O)NC(=O)CCOCCC(=O)NCCNc2ncc(-c4cc(C)cc(F)c4)c(N4CCC(N)CC4)c2-c2nc4ccc(Cl)cc4[nH]2)C(C)C)cc1)CC3 [Compound 71]
- EC50 ([1]; hSST2 cAMP Avg EC50 (nM)): 0.29 nM
- EC50 [2, 3]: 270 nM
- EC50 (SST2; Internalization EC50 (nM)): 1.6 nM

SMILES: CC[C@H](C)[C@@H]([C@@H](CC(=O)N1CCC[C@H]1[C@H](OC)[C@@H](C)C(=O)N[C@H](C)[C@@H](O)c1ccccc1)OC)N(C)C(=O)[C@@H](NC(=O)[C@H](C(C)C)N(C)C(=O)OCc1ccc(NC(=O)[C@H](C)NC(=O)[C@@H](NC(=O)[C@H](CCC(=O)O)NC(=O)CCOCCC(=O)NCCNc2ncc(-c3cc(C)cc(F)c3)c(N3CCC(N)CC3)c2-c2nc3ccc(Cl)cc3[nH]2)C(C)C)c(O[C@@H]2O[C@H](CO)[C@@H](O)[C@H](O)[C@H]2O)c1)C(C)C [Compound 67] (X1-EVA[PABC(3-O-βDGlc)][NMeV]V[Dil][Dolaproine]-X2)
- EC50 ([1]; read-out: hSST2 cAMP Avg EC50): 0.19 nM
- EC50 ([2]; 2 h): 41 nM
- EC50 (SST2; read-out: Internalization EC50): 6.7 nM

SMILES: CC[C@H](C)[C@@H]([C@@H](CC(=O)N1CCC[C@H]1[C@H](OC)[C@@H](C)C(=O)N[C@H](C)[C@@H](O)c1ccccc1)OC)N(C)C(=O)[C@@H](NC(=O)[C@H](C(C)C)N(C)C(=O)OCc1ccc(NC(=O)[C@H](CCCNC(N)=O)NC(=O)[C@@H](NC(=O)[C@H](CS(=O)(=O)O)NC(=O)CCOCCC(=O)NCCNc2ncc(-c3cc(C)cc(F)c3)c(N3CCC(N)CC3)c2-c2nc3ccc(Cl)cc3[nH]2)C(C)C)cc1)C(C)C [Compound 83] (X1-[Cya]V[Cit][PABC][NMeV]V[Dil][Dolaproine]-X2)
- EC50 ([1]; read-out: hSST2 cAMP Avg EC50): 0.11 nM
- EC50 ([2]; 2 h): 20 nM
- EC50 (SST2; read-out: Internalization EC50): 2.9 nM

SMILES: CCC(C)C(C(CC(=O)N1CCCC1C(OC)C(C)C(=O)NC(C)C(O)c1ccccc1)OC)N(C)C(=O)C(NC(=O)C(C(C)C)N(C)C(=O)OCc1ccc(NC(=O)[C@H](CCCNC(N)=O)NC(=O)[C@@H](NC(=O)CNC(=O)[C@H](Cc2ccccc2)NC(=O)CNC(=O)CNC(=O)CCOCCC(=O)NCCNc2ncc(-c3cc(C)cc(F)c3)c(N3CCC(N)CC3)c2-c2nc3ccc(Cl)cc3[nH]2)C(C)C)cc1)C(C)C (stereo in doubt) [Compound 30]
- EC50 ([1]; read-out: hSST2 cAMP Avg EC50): 0.56 nM
- EC50 ([2]; 2 h): 28.6 nM
- EC50 (SST2; read-out: Internalization EC50): 7.1 nM

SMILES: CC[C@H](C)[C@@H]([C@@H](CC(=O)N1CCC[C@H]1[C@H](OC)[C@@H](C)C(=O)N[C@H](C)[C@@H](O)c1ccccc1)OC)N(C)C(=O)[C@@H](NC(=O)[C@H](C(C)C)N(C)C(=O)OCc1ccc(NC(=O)[C@H](CCCNC(N)=O)NC(=O)[C@@H](NC(=O)CN2CCN(CC(=O)O)CCN(CC(=O)NCCOCCC(=O)NCCNc3ncc(-c4cc(C)cc(F)c4)c(N4CCC(N)CC4)c3-c3nc4ccc(Cl)cc4[nH]3)CC2)C(C)C)cc1)C(C)C [Compound 55]
- EC50 ([1]; read-out: hSST2 cAMP Avg EC50): 0.17 nM
- EC50 ([2]; 2 h): 35 nM
- EC50 (SST2; read-out: Internalization EC50): 8.3 nM

SMILES: CC[C@@]1(O)C(=O)OCc2c1cc1n(c2=O)Cc2c-1nc1cc(F)c(C)c3c1c2[C@@H](NC(=O)OCc1ccc(NC(=O)[C@H](CCCNC(N)=O)NC(=O)[C@@H](NC(=O)CN2CCN(CC(=O)O)CCN(CC(=O)NCCOCCOCCOCCOCCC(=O)NCCNc4ncc(-c5cc(C)cc(F)c5)c(N5CCC(N)CC5)c4-c4nc5ccc(Cl)cc5[nH]4)CC2)C(C)C)cc1)CC3 [Compound 93]
- EC50 ([1]; hSST2 cAMP Avg EC50 (nM)): 0.48 nM
- EC50 [2, 3]: 130 nM
- EC50 (SST2; Internalization EC50 (nM)): 4.5 nM

SMILES: CC[C@H](C)[C@@H]([C@@H](CC(=O)N1CCC[C@H]1[C@H](OC)[C@@H](C)C(=O)N[C@H](C)[C@@H](O)c1ccccc1)OC)N(C)C(=O)[C@@H](NC(=O)[C@H](C(C)C)N(C)C(=O)CNC(=O)[C@H](Cc1ccccc1)NC(=O)CNC(=O)CNC(=O)CCOCCC(=O)NCCNc1ncc(-c2cc(C)cc(F)c2)c(N2CCC(N)CC2)c1-c1nc2ccc(Cl)cc2[nH]1)C(C)C [Compound 34] (X1-GGFG[NMeV]V[Dil][Dolaproine]-X2)
- EC50 ([1]; hSST2 cAMP Avg EC50 (nM)): 0.16 nM
- EC50 [2, 3]: 3140 nM
- EC50 (SST2; Internalization EC50 (nM)): 21.8 nM

SMILES: CC[C@H](C)[C@@H]([C@@H](CC(=O)N1CCC[C@H]1[C@H](OC)[C@@H](C)C(=O)N[C@H](C)[C@@H](O)c1ccccc1)OC)N(C)C(=O)[C@@H](NC(=O)[C@H](C(C)C)N(C)C(=O)OCc1ccc(NC(=O)[C@H](C)NC(=O)[C@@H](NC(=O)[C@H](CS(=O)(=O)O)NC(=O)CCOCCOCCOCCOCCC(=O)NCCNc2ncc(-c3cc(C)cc(F)c3)c(N3CCC(N)CC3)c2-c2nc3ccc(Cl)cc3[nH]2)C(C)C)cc1C(=O)NCCN)C(C)C [Compound 158]
- EC50 ([1]; read-out: hSST2 cAMP Avg EC50): 0.24 nM
- EC50 ([2]; 2 h): 3 nM
- EC50 (SST2; read-out: Internalization EC50): 12 nM
